Results published in a melting point compilation (Tetko et al.; mined from patent text by program, amines drawn as free bases though some values may be those of a salt).
Residues, ends and D or L forms follow the SMILES beside them. *: point of attachment. Boc = CC(C)(C)OC(=O)*; Bn = c1ccc(C*)cc1

Row | SMILES | melting point
1 | Nc1nc2ccc(S(=O)(=O)n3c(CCC(=O)O)cc4nc(Cl)ccc43)cc2s1 | > 260 °C
2 | CC(C)c1nc(CCOCc2ccccc2)n(Cc2cccc([N+](=O)[O-])c2)c1Sc1cc(Cl)cc(Cl)c1 | 119 to 122 °C
3 | N#Cc1ccc2c3c(cc([N+](=O)[O-])c2c1)NCC3CCl (stereo not given) | 237 to 238 °C
4 | COC(=O)CC1=C(C)/C(=C/c2ccc(S(C)(=O)=O)cc2)c2ccc(F)cc21 | 162 to 164 °C
5 | O=C(NO)Oc1ccccc1 | 99.5 to 101 °C
6 | CCN(CC)CCCNc1nc(Cl)nc(NCCCN(CC)CC)n1 | 119 °C
7 | O=C(Cn1cccc(O)c1=O)NCCN(CCNC(=O)Cn1cccc(O)c1=O)CCNC(=O)Cn1cccc(O)c1=O | 112 to 114 °C
8 | CCCOC(=O)c1c(C)nc2cc(OC)c(OC)cc2c1-c1ccc(OC)c(OC)c1 | 153 to 155 °C
9 | CCOCc1nc2c(N)nc3cccnc3c2n1C1(OC)CCCCC1 | 160 to 161 °C
10 | CCOC(=O)/C(=N\OC(C)(CC)C(=O)OC(C)(C)C)c1csc(NC(c2ccccc2)(c2ccccc2)c2ccccc2)n1 (stereo not given) | 122 to 125 °C
11 | CC(=O)Nc1ccc(C(=O)O)cc1NC(=O)CO | 214 to 215 °C
12 | O=C(CCS)NCCS | 40 °C
13 | COc1cc(CC(=O)Nc2nn(-c3ccccc3)cc2C=O)ccc1OCc1nc(-c2ccccc2)oc1C | 156 to 158 °C
14 | Cc1cccc(C)c1NC(=S)N1CC(Oc2cccc(C(F)(F)F)c2)C1 | 197 to 199 °C
15 | O=C1NC(=Cc2c(Cl)cccc2Cl)C(=O)C1=NO | 232 °C
16 | COC(=O)C1OC(OC(=N)C(Cl)(Cl)Cl)C(OC(=O)C(C)C)C(OC(=O)C(C)C)C1OC(=O)C(C)C (stereo not given) | 108 °C
17 | CCOC(=O)c1cnc2ccc(-c3ccc(C(F)(F)F)cc3)cn12 | 118 °C
18 | Cc1c(C(=O)CS(=O)(=O)Cc2ccc(Cl)cc2)sc2ccc(Cl)cc12 | 204 to 206 °C
19 | Cc1ccc(S(=O)(=O)N2CCC[C@@H]2C(=O)N[C@H](Cc2ccccc2)C(=O)O)cc1 | 71 to 75 °C
20 | C=C(Cn1ccnc1)c1ccccc1OCc1ccc(Cl)cc1Cl | 84 to 86 °C
21 | COc1ccc(S(=O)(=O)C(C)(Cc2cccc(OCCN3CCCCC3)c2)C(N)=O)cc1 (stereo not given) | 74 °C
22 | O=C(c1ccccc1)N1CCC(Cc2ccccc2)(C(=O)O)CC1 | 183 to 189 °C
23 | CN(C)CCC(c1ccncc1)S(=O)(=O)c1ccc(Cl)cc1 (stereo not given) | 91 to 92 °C
24 | Cn1cnc(-c2ccc(NC(=C3C(=O)Oc4ccccc43)c3ccc(C(C)(C)N)cc3)cc2)c1 | > 280 °C

Row | SMILES | melting point
25 | COC(=O)c1cc(Br)c(OC)c2c1OCO2 | 165 to 166 °C
26 | Cc1cccc(NC(=O)N2CCN(CCc3ccc(-c4cccc(N)n4)cc3)CC2)c1 | 88 to 94 °C
27 | COc1cc(C(=O)O)ccc1CC(=O)Nc1cccc(/C=C/c2nc(C3CCC3)cs2)c1 | 242 to 243 °C
28 | O=C(Oc1ccc([N+](=O)[O-])cc1)OC1CCN(C(=O)OCc2ccccc2)CC1 | 118 to 120 °C
29 | COc1cccc(CCN2C(=O)c3c(F)ccc(F)c3C2(O)c2ccccc2)c1 (stereo not given) | 141 °C
30 | C=C(c1ccc(C(=O)OC)cc1)N1CC1C(N)=O (stereo not given) | 149 to 150 °C
31 | CCOC(=O)CC(=O)CC(O)/C=C/c1c(-c2ccccc2)c2ccccc2c(=O)n1C (stereo not given) | 148 to 149 °C
32 | CC1CCCC(C)(C)C1C(O)c1ccc(C(N)=NO)c(F)c1 (stereo not given) | 154 to 156 °C
33 | O=C1c2ccccc2CN1C1CCN(c2ccc(C(OCc3ccccc3)c3ccccc3)cc2)CC1 (stereo not given) | 112 to 115 °C
34 | CCc1nc2c(N)nc3ccc(OCc4ccccc4)cc3c2n1CCCCNC(=O)N1CCOCC1 | 190 to 191 °C
35 | CNc1c(CC(C)O)cc([N+](=O)[O-])cc1[N+](=O)[O-] (stereo not given) | 132 °C
36 | COC(=O)[C@@](N)(CCSC)C(=O)c1ccc(NC[C@@H]2C[C@@H](O)CN2C(=O)OC(C)(C)C)cc1-c1ccccc1 | 81 °C
37 | CCCCc1ccc(C(=O)O)c(=O)[nH]1 | 149 °C
38 | CC(=O)c1ccc(Nc2c(F)c(F)cc(F)c2F)c(CC(=O)N(C)C)c1 | 112 to 114 °C
39 | CC(C)OC(=O)N1CCC(NC(=O)N2CCn3c(c(C(N)=O)c(C#N)c3C3CCOCC3)C2)CC1 | 124 to 126 °C
40 | COc1ccc2c(c1)C(C(=O)N(Cc1ccc(C#N)cc1)c1ccc(C(C)C)cc1)CCC2 (stereo not given) | 137 to 138 °C
41 | Cn1c(=O)nc(-c2ccccc2F)c2ccsc21 | 222 to 223 °C
42 | COCCOc1cc2c(cc1-c1ccccc1F)NC(=O)CC(c1cccc(C#N)c1)=N2 | 211 to 213 °C
43 | CCC(COC(=O)c1ccc[nH]1)C1CN(C)C2Cc3cn(C)c4cccc(c34)C2(OC)C1 (stereo not given) | 96 to 98 °C
44 | COc1ccc(N2CCN(c3c(C)c(C)c4c(c3C)C(c3ccc(OC(F)(F)F)cc3)C(C)(C)O4)CC2)cc1 (stereo not given) | 147 to 148 °C
45 | N#Cc1ccc(C(F)(F)C(F)(F)C(F)(F)c2ccc(C#N)c(C#N)c2)cc1C#N | 133 to 135 °C
46 | OC(=S)c1cc(C(F)(F)F)ccc1O | 122 to 125 °C
47 | O=[N+]([O-])c1ccc(OCC(F)(F)F)c([N+](=O)[O-])c1 | 76 to 77 °C
48 | Oc1cc2c(cc1O)-c1ccccc1C2 | 155 to 156 °C

Row | SMILES | melting point
49 | Cc1nc(NC(=O)c2cccc(F)c2)sc1C(=O)NCc1ccccc1 | 162 to 165 °C
50 | CN(CCNc1ccc2c3c(c4c(OCc5ccccc5)ccc(OCc5ccccc5)c4cc13)NN2CCN(CCO)Cc1ccccc1)Cc1ccccc1 | 147 to 149 °C
51 | CC(C)(C)c1ccnc(-c2cc(C(C)(C)C)ccn2)c1 | 159 to 160 °C
52 | O=c1c2c[nH]c3c(c-2nn1-c1ccc(Cl)cc1)CCC3 | > 350 °C
53 | O=C(O)c1cccc(OC(Cl)=CCl)c1 | 137 to 141 °C
54 | CC(C)COC(=O)N[C@@H](Cc1ccccc1)C(=O)CSCc1ccco1 | 58 to 59 °C
55 | O=Cc1c[nH]c(=O)c2ccccc12 | 222 to 223 °C
56 | COC(=O)c1cccc([N+](=O)[O-])c1NCc1ccc(-c2ccccc2C#N)cc1 | 140 to 141 °C
57 | COc1c(OCCC(NC(=O)OCc2ccccc2)C(=O)O)cc2c(c1OC)C1=C(CCC1)C(=NNC1=CCNCN1)CC2 (racemic) | 172 °C
58 | OCc1csc(=S)n1-c1ccc(F)c(F)c1F | 113 to 116 °C
59 | C=CCSCCON=C(C(=O)OCC)c1csc(NC=O)n1 | 62 to 64 °C
60 | Cc1cc(C)c(-n2ccc3c(N)nn(C)c(=O)c32)c(C)c1 | 254 to 256 °C
61 | COCCOCCOc1ccc2cc(C(=O)O)[nH]c2c1 | 99 to 102 °C
62 | COc1cc2c(c(O)c1OC)C(Cc1ccc(F)cc1)NCC2 (stereo not given) | 195 to 200 °C
63 | O=C(NN=Cc1ccc2ccccc2n1)c1cccc([N+](=O)[O-])c1 | 217 to 218 °C
64 | CCOC(=O)c1nc(CC)[nH]c1C(=O)OCC | 83 to 84 °C
65 | COc1cccc(-c2cc(C3CNC(=O)C3)ccc2OC)c1 (stereo not given) | 137 to 139 °C
66 | CCCCc1nn(C(CC)c2ccccc2)c(=O)n1Cc1ccc(-c2ccccc2-c2nnn[nH]2)cc1 (stereo not given) | 72 to 75 °C
67 | Cc1c(CC2CCc3c(c4ccccc4n3CC3CCCC3)C2=O)ncn1C(c1ccccc1)(c1ccccc1)c1ccccc1 (stereo not given) | 177 to 179 °C
68 | COc1cccc(C(=O)Nc2ccc(N3CCCC3)cc2C(C)=O)c1OC | 137 to 140 °C
69 | CCOC(=O)c1c(CCc2ccc(OC)cc2)nc2c(c1-c1ccc(C(=O)NCc3ccco3)cc1)C(=O)N1CCC[C@H]21 | 136 °C
70 | CCCCOCCOc1ccc(-c2cnc(N3CCC(COC(C)=O)C3)c(/C=C(\C)C(=O)O)c2)cc1 (stereo not given) | 82.2 to 84.2 °C
71 | CCc1cc(C#N)c(Cl)nc1C | 63 to 64 °C
72 | Oc1ccc2c(Cl)cc(-c3ccccc3)nc2c1 | 190 to 192 °C

Row | SMILES | melting point
73 | Cc1ccc(C(=O)Nc2ccc(CN3CCN(C)CC3)cc2)cc1Nc1nccc(-c2cccnc2)n1 | 153 to 155 °C
74 | COC(=O)c1ccc2oc(-c3ccc(C(F)(F)F)cc3)cc2c1 | 180 °C
75 | N#Cc1ncn2c(C(F)(F)F)cc(-c3ccc(Cl)cc3Cl)nc12 | 139 °C
76 | CC(C)(NC(=O)C(CS)Cc1ccccc1)C(=O)O (stereo not given) | 175 to 176 °C
77 | Cc1cc(C)c2cccc(OCc3c(Cl)ccc(S(=O)(=O)N4CCC[C@H]4C(=O)N4CCN(C(=O)c5ccc(C(N)=NO)cc5)CC4)c3Cl)c2n1 | 161 °C
78 | COc1ccccc1NCN1C(=O)CN(C)C1=O | 93 to 96.5 °C
79 | COc1ccc(Br)cc1N(C=NCl)C1CC1 | 185 °C
80 | CCC(C(=O)O)N(C(=O)c1cn(-c2cccc(C(F)(F)F)c2)nc1C)c1ccc(OCC(C)(C)C)c(C#N)c1 (stereo not given) | 156 to 158 °C
81 | CCNC(=O)NC1CCCc2sccc21 (stereo not given) | 184 to 188 °C
82 | COC(=O)C(CC(C)C)NC(=O)C(C)NC(=O)C(Cc1ccc(OCc2ccccc2)cc1)NC(=O)OC(C)(C)C (stereo not drawn) (Boc-Tyr(Bn)-Ala-Leu-OMe; configuration not given here) | 128 to 129 °C
83 | Cn1cc(C2=C(c3cccc(N4CCC(O)CC4)c3)C(=O)NC2=O)c2ccccc21 | 136 to 141 °C
84 | CC(C)(C)NC(=O)c1nn(-c2ccc(F)cc2)c2c1C1CCC2CC1 | 190 to 193 °C
85 | CCCCCCCCCCCCCCCCCC(=O)OC[C@H]1OCC(=NO)[C@@H](O)[C@@H]1O | 99 to 105 °C
86 | C=CCONC(=O)COc1cccc2c1c(C(=O)C(N)=O)c(CC)n2Cc1ccccc1 | 175 to 177 °C
87 | O=CN(O)C(CCCO)CS(=O)(=O)c1ccc(-c2ccc(C(F)(F)F)cc2)cc1 (stereo not given) | 139 to 140 °C
88 | Nc1cc(Cl)nc(OCc2cccc3ccccc23)n1 | 160 to 161 °C
89 | COC(=O)NNC(=S)Cc1cc(OC)c(OC)c(OC)c1 | 134 °C
90 | CCCn1ncc2c(=O)[nH]c(-c3cc(Br)ccc3OCC)nc21 | 172 to 173 °C
91 | COc1ccc2c(c1OCC#N)CCCC2 | 50 to 51 °C
92 | O=C(O)c1c(F)c(F)c(O)c(Cl)c1F | 87 to 90 °C
93 | CCCCOc1nc(N)c2[nH]c(=O)n(CCCCN(CC(C)(C)O)S(=O)(=O)c3cccc(CC(=O)OC)c3)c2n1 | 192 to 193 °C
94 | COc1cccc(C(=O)NC2(C(=O)c3cc(C)cc(C)c3)CC2)c1C | 174 to 176 °C
95 | CCOC(=O)c1ncn2c1CN(C)C(=O)c1sccc1-2 | 160 to 162 °C
